The source of these data is EP1379539B1, “METHODS AND MATERIALS FOR MAKING AND USING TRANSGENIC DICAMBA-DEGRADING ORGANISMS” (BOARD OF REGENTS OF THE UNIVERSITY OF NEBRASKA, priority 2001, dated 2002).

Assay [1] has as its system Transgenic tobacco plants bearing oxygenase gene constructs but lacking the transit peptide coding sequence. The note with it: sprayed, 0.5 lbs/acre to 5 lbs/acre tested.
Assay [2] deals with transgenic tobacco plants bearing the oxygenase gene constructs with the transit peptide. The note with it: 0.5 lbs/acre to 5 lbs/acre tested.
Assay [3] deals with wild type tobacco plants. The note with it: for effect on non-transgenic plants: sprayed.
For assay [4], the system named is Transgenic plants containing the three gene construct (oxygenase, ferredoxin and reductase genes).

Molecules are shown by their SMILES. Like-named read-outs stand apart in the source and are kept apart here.

`COc1c(Cl)ccc(Cl)c1C(=O)O` [dicamba, 2-methoxy-3,6-dichlorobenzoic acid]: in assay [1], the “dicamba treatment to which plants displayed resistance (grew and were healthy)” value is “at least 2.5 lbs/acre”. Moreover, in assay [2], the “concentration of dicamba at which sprayed plants grew and were healthy” value was “up to 5 lbs/acre”. The “effect on non-transgenic plants” value in assay [3] (0.125 Ib/acre dicamba) was “reduced growth, withering and severe necrosis”; in assay [3] (same amounts of dicamba as the transgenic plants (0.5 lbs/acre to 5 lbs/acre)) it was “reduced growth, withering and severe necrosis”. Besides, the “sensitivity of the wild type plants” value in assay [3] (0.5 lbs/acre of dicamba, sprayed at 10-12-leaf stage with non-ionic surfactant) came to 100%. Also, the “effect on transgenic plants” value in assay [4] (0.125 Ib/acre dicamba, sprayed) was “grew and were healthy”. Moreover, the “predicted resistance to dicamba” value in assay [4] (predicted from plants with the oxygenase construct alone) is given as no less than 2.5 Ib/acre.
